# Assay results: publication PMC9632963, “Preclinical characterization and phase I clinical trial of CT053PTSA targets MET, AXL, and VEGFR2 in patients with advanced solid tumors” (Frontiers in Immunology, 2022)
# System: patients with advanced solid tumors
# Test: Phase I trial: safety, tolerability, DLT, MTD (CTCAE v4.0)
# Format: in vivo
# Text: Eligible patients had at least one measurable lesion per RECIST v 1.1, Eastern Cooperative Oncology Group (ECOG) performance status of 0 or 1, and adequate hematological, renal, cardiac and hepatic functions. The primary objectives were to assess safety and tolerability as well as to determine the MTD, DLT, and dose recommended for further study. The secondary objectives were to assess the PK and preliminary efficacy of CT053PTSA.
# An initial accelerated titration design was used in the 15 and 30 mg QD cohorts, and the “3+3” schema was used starting in the 60 mg QD cohort. […] The study protocol was approved by an institutional review board at Sun Yat-sen University Cancer Center. Written informed consent was obtained from all the patients before enrollment.
# Descriptive statistics of safety are presented per CTCAE v4.0. Subjects who received at least one dose of CT053PTSA were considered eligible to be evaluated and included in safety analyses. […] According to the RECIST 1.1 criteria, imaging examinations were performed at each specified time point in the protocol. The antitumor activity was measured by RECIST1.1.
compound,measurement,setting,value
Cc1c(C(=O)Nc2ccc(Oc3ccnc4cc(OCC(C)(C)O)ccc34)c(F)c2)c(=O)n(-c2ccccc2)n1C [CT053PTSA],"Anaemia, All",15mg (n = 1),0 n (%)
same,"Anaemia, ≥ G3",15mg (n = 1),0 n (%)
same,"Blood chloride decreased, All",15mg (n = 1),0 n (%)
same,"Blood chloride decreased, ≥ G3",15mg (n = 1),0 n (%)
same,"Blood creatinine increased, All",15mg (n = 1),0 n (%)
same,"Blood creatinine increased, ≥ G3",15mg (n = 1),0 n (%)
same,"Blood potassium decreased, All",15mg (n = 1),0 n (%)
same,"Blood potassium decreased, ≥ G3",15mg (n = 1),0 n (%)
same,"Blood sodium decreased, All",15mg (n = 1),0 n (%)
same,"Blood sodium decreased, ≥ G3",15mg (n = 1),0 n (%)
same,"Blood uric acid increased, All",15mg (n = 1),0 n (%)
same,"Blood uric acid increased, ≥ G3",15mg (n = 1),0 n (%)
same,"Decreased appetite, All",15mg (n = 1),0 n (%)
same,"Decreased appetite, ≥ G3",15mg (n = 1),0 n (%)
same,"Diarrhea, All",15mg (n = 1),0 n (%)
same,"Diarrhea, ≥ G3",15mg (n = 1),0 n (%)
same,"Dizziness, All",15mg (n = 1),0 n (%)
same,"Dizziness, ≥ G3",15mg (n = 1),0 n (%)
same,"Dry mouth, All",15mg (n = 1),0 n (%)
same,"Dry mouth, ≥ G3",15mg (n = 1),0 n (%)
same,"Electrocardiogram QT prolonged, All",15mg (n = 1),0 n (%)
same,"Electrocardiogram QT prolonged, ≥ G3",15mg (n = 1),0 n (%)
same,"Electrolyte imbalance, All",15mg (n = 1),0 n (%)
same,"Electrolyte imbalance, ≥ G3",15mg (n = 1),0 n (%)
same,"Hemoglobin decreased, All",15mg (n = 1),0 n (%)
same,"Hemoglobin decreased, ≥ G3",15mg (n = 1),0 n (%)
same,"Hypertension, All",15mg (n = 1),0 n (%)
same,"Hypertension, ≥ G3",15mg (n = 1),0 n (%)
same,"Hyponatremia, All",15mg (n = 1),0 n (%)
same,"Hyponatremia, ≥ G3",15mg (n = 1),0 n (%)
same,"Hypoparathyroidism, All",15mg (n = 1),0 n (%)
same,"Hypoparathyroidism, ≥ G3",15mg (n = 1),0 n (%)
same,"Mouth ulceration, All",15mg (n = 1),0 n (%)
same,"Mouth ulceration, ≥ G3",15mg (n = 1),0 n (%)
same,"Nausea, All",15mg (n = 1),0 n (%)
same,"Nausea, ≥ G3",15mg (n = 1),0 n (%)
same,"Oropharyngeal pain, All",15mg (n = 1),0 n (%)
same,"Oropharyngeal pain, ≥ G3",15mg (n = 1),0 n (%)
same,"Pain, All",15mg (n = 1),0 n (%)
same,"Pain, ≥ G3",15mg (n = 1),0 n (%)
same,"Palmar-plantar erythrodysaesthesia syndrome, All",15mg (n = 1),0 n (%)
same,"Palmar-plantar erythrodysaesthesia syndrome, ≥ G3",15mg (n = 1),0 n (%)
same,"Platelet count decreased, All",15mg (n = 1),0 n (%)
same,"Platelet count decreased, ≥ G3",15mg (n = 1),0 n (%)
same,"Proteinuria, All",15mg (n = 1),0 n (%)
same,"Proteinuria, ≥ G3",15mg (n = 1),0 n (%)
same,"Pyrexia, All",15mg (n = 1),0 n (%)
same,"Pyrexia, ≥ G3",15mg (n = 1),0 n (%)
same,"Sinus bradycardia, All",15mg (n = 1),0 n (%)
same,"Sinus bradycardia, ≥ G3",15mg (n = 1),0 n (%)
same,"Stomatitis, All",15mg (n = 1),0 n (%)
same,"Stomatitis, ≥ G3",15mg (n = 1),0 n (%)
same,"Vomiting, All",15mg (n = 1),0 n (%)
same,"Vomiting, ≥ G3",15mg (n = 1),0 n (%)
same,"leukopenia, All",15mg (n = 1),1 (100) n (%)
same,"leukopenia, ≥ G3",15mg (n = 1),0 n (%)
same,"neutropenia, All",15mg (n = 1),0 n (%)
same,"neutropenia, ≥ G3",15mg (n = 1),0 n (%)
same,"transaminase elevation, All",15mg (n = 1),1 (100) n (%)
same,"transaminase elevation, ≥ G3",15mg (n = 1),0 n (%)
same,"Anaemia, All",30mg (n = 1),0 n (%)
same,"Anaemia, ≥ G3",30mg (n = 1),0 n (%)
same,"Blood chloride decreased, All",30mg (n = 1),0 n (%)
same,"Blood chloride decreased, ≥ G3",30mg (n = 1),0 n (%)
same,"Blood creatinine increased, All",30mg (n = 1),0 n (%)
same,"Blood creatinine increased, ≥ G3",30mg (n = 1),0 n (%)
same,"Blood potassium decreased, All",30mg (n = 1),0 n (%)
same,"Blood potassium decreased, ≥ G3",30mg (n = 1),0 n (%)
same,"Blood sodium decreased, All",30mg (n = 1),0 n (%)
same,"Blood sodium decreased, ≥ G3",30mg (n = 1),0 n (%)
same,"Blood uric acid increased, All",30mg (n = 1),0 n (%)
same,"Blood uric acid increased, ≥ G3",30mg (n = 1),0 n (%)
same,"Decreased appetite, All",30mg (n = 1),1 (100) n (%)
same,"Decreased appetite, ≥ G3",30mg (n = 1),0 n (%)
same,"Diarrhea, All",30mg (n = 1),0 n (%)
same,"Diarrhea, ≥ G3",30mg (n = 1),0 n (%)
same,"Dizziness, All",30mg (n = 1),0 n (%)
same,"Dizziness, ≥ G3",30mg (n = 1),0 n (%)
same,"Dry mouth, All",30mg (n = 1),0 n (%)
same,"Dry mouth, ≥ G3",30mg (n = 1),0 n (%)
same,"Electrocardiogram QT prolonged, All",30mg (n = 1),0 n (%)
same,"Electrocardiogram QT prolonged, ≥ G3",30mg (n = 1),0 n (%)
same,"Electrolyte imbalance, All",30mg (n = 1),0 n (%)
same,"Electrolyte imbalance, ≥ G3",30mg (n = 1),0 n (%)
same,"Hemoglobin decreased, All",30mg (n = 1),0 n (%)
same,"Hemoglobin decreased, ≥ G3",30mg (n = 1),0 n (%)
same,"Hypertension, All",30mg (n = 1),0 n (%)
same,"Hypertension, ≥ G3",30mg (n = 1),0 n (%)
same,"Hyponatremia, All",30mg (n = 1),1 (100) n (%)
same,"Hyponatremia, ≥ G3",30mg (n = 1),0 n (%)
same,"Hypoparathyroidism, All",30mg (n = 1),0 n (%)
same,"Hypoparathyroidism, ≥ G3",30mg (n = 1),0 n (%)
same,"Mouth ulceration, All",30mg (n = 1),0 n (%)
same,"Mouth ulceration, ≥ G3",30mg (n = 1),0 n (%)
